The text below walks through data of publication PMC11061835, “Elucidating the Mechanism of Metabolism of Cannabichromene by Human Cytochrome P450s” (Journal of Natural Products, 2024).

The test system of data set [1] is BV2 microglial cells, stimulated with lipopolysaccharide (LPS). Briefly: IL-6 ELISA in LPS-stimulated BV2 cells. It counts as cell-based, mouse. The note with it: 0.1, 1.0, 2.5, 5.0 μM, LPS-stimulated. As for the experimental part:
BV2 cells were a gift from Dr. Bob McCusker, University of Illinois. They were cultured and maintained at 37 °C in a humidified atmosphere of 95% air and 5% CO2 in high-glucose Dulbecco’s modified Eagle’s (DMEM) medium (Cat No. 10-013-CV, Corning Life Sciences), supplemented with 5% heat-inactivated fetal bovine serum (FBS), streptomycin (100 μg/mL), and penicillin (100 units/mL). Stocks of all the minor cannabinoids were made in ethanol and stored at −80 °C and diluted as required before cell treatment. A final concentration of ethanol was maintained at 0.1% in the cell culture experiments.
BV-2 cells were plated at a density of 50 000 cells/well in a 24-well plate at 37 °C under controlled conditions. Cells were pretreated with the minor cannabinoids at various concentrations (0.1, 1.0, 2.5, 5.0 μM) for 4 h and then stimulated with LPS for 24 h. The culture medium was removed and saved for the determination of nitric oxide production through Cayman’s Griess assay. IL-6, TNFα, and Arginase 1 production was also determined utilizing collected medium. For the Greiss assay, in a 96-well plate, 100 μL of culture medium was used, and 50 μL of both Greiss reagent-1 and Greiss reagent-2 was added and incubated for 10 min. The absorbance was measured at 540 nm using a plate reader (SpectraMax iD5). The quantification was done using a calibration curve that was generated using the sodium nitrite standard obtained from Cayman Chemicals.
BV-2 cells were pretreated with the minor cannabinoids as described previously for 4 h in serum media (reduced to 5% FBS). Cells were stimulated with LPS (25 ng/mL in growth media) and allowed to incubate for 24 h. The culture medium was collected, and the concentrations of IL-6 (Cayman Chemicals), TNFα (ThermoFisher Scientific), and arginase 1 (ThermoFisher Scientific) cytokine expression were determined using specific monoclonal antibodies by ELISA kits as per manufacturer’s instructions.
(In general: An ELISA detects its analyte on a solid surface through an enzyme-linked reagent.)

The target of a further data set is CYP2D6 (Homo sapiens, UniProt P10635). Briefly: Spectroscopic titration (Soret shift), CYP2D6. It counts as binding. On the set-up: His-tag; made in house; host or cells: E. coli DH-5α with pTGro7 plasmid. The note with it: CYP2D6, absence of CPR. As for the experimental part: CBC binding to various CYPs was determined by analyzing the Soret shift from ∼417 to ∼390 nm. CBC (stock 10 mM) was dissolved in ethanol and titrated with different CYPs at room temperature. Buffer-exchanged CYP2J2, CYP2D6, CYP3A4, and CYP2C8 (concentrations of proteins were kept between 4 and 5 μM) were dissolved in 0.1 M phosphate buffer (pH = 7.4), and initial spectra were recorded from 200 to 800 nm with a prominent peak at 417 nm. The concentration of CBC was varied from 0 to 100 μM keeping the final concentration of substrate in EtOH not more than 1% in cuvette. 0–4 μL of stock CBC was added using a Hamilton syringe in both the sample and blank cuvettes. The mixture was incubated for 5 min at 37 °C, and absorbance spectra were recorded using a Cary Bio 300 UV–vis spectrophotometer (Agilent Technologies, Santa Clara, CA). To eliminate the background absorbance, we derived the final spectra by […].

Data set [2] is described as follows: In vivo metabolism of CBC, mouse blood plasma (LC-MS/MS). Also on record: species or system mice. The method, then:
CBC was dissolved in ethanol, and an aliquot was then mixed with Tween-80. Ethanol was removed by evaporation. The mixture was then reconstituted with PBS to a 6% final concentration of Tween-80. C 57BL/6J female mice, age 8–10 weeks, were injected with 20 mg/kg CBC or vehicle intravenously (IV, n = 3) via the tail vein or intraperitoneally (IP, n = 3). Blood samples were collected terminally by cardiac puncture into heparin-coated syringes at 0.5 and 2 h after CBC treatment and transferred into tubes. The tubes were then centrifuged, and plasma samples were removed and stored at −80 °C.
200 μL of blood plasma from each sample was taken into a glass tube, and 500 μL of extraction solvent (hexane:ethyl acetate 80:20 v/v) was added. The remaining extraction steps are similar to those used for CBC metabolite extraction from CYPs as mentioned earlier.
Samples were analyzed with the 5500 QTRAP LC/MS/MS system (Sciex, Framingham, MA) in the Metabolomics Lab of Roy J. Carver Biotechnology Center, University of Illinois at Urbana–Champaign. Software Analyst 1.7.1 was used for data acquisition and analysis. The 1200 series HPLC system (Agilent Technologies, Santa Clara, CA) includes a degasser, an autosampler, and a binary pump. The LC separation was performed on a Phenomenex Gemini C6-phenyl column (2 × 100 mm, 3 μm) with mobile phase A (0.1% formic acid in water) and mobile phase B (0.1% formic acid in acetonitrile). The flow rate was 0.2 mL/min. The linear gradient was as follows: 0–2 min, 95% A; 10 min, 50% A; 20–25 min, 0% A; 25.1–31 min, 95% A. The autosampler was set at 10 °C. The injection volume was 5 μL. Mass spectra were acquired under positive electrospray ionization (ESI) with the ion spray voltage of +5000 V. The source temperature was 400 °C. The curtain gas, ion source gas 1, and ion source gas 2 were 325, 65, and 55 psi, respectively. Multiple reaction monitoring (MRM) was used for quantitation: CBC m/z 315.1 → m/z 135.0; 1-acetoxy-6′,7′-dihydroxy-CBC (JM-I-73) m/z 349.1→ m/z 193.0; 1″-hydroxy-CBC (JM-I-66) m/z 331.1→ m/z 275.1; 6′,7′-epoxy-CBC (JM-I-27) m/z 331.1→ m/z 193.0; 7′,10′-ene-6′-hydroxy-CBC (JM-I-30) m/z 331.1→ m/z 193.0; 8′-hydroxy-CBC (JM-I-32) […]→ m/z 77.0. Internal standard EET-EA-d11 was monitored at m/z 375.2→ m/z 357.1.

The structures appear in SMILES notation. Several values for one entry are separate records, joined by “and”; a condition that tells them apart may be missing. Equal values may be shown once.

Sequence of CYP2D6 (P10635 whole entry): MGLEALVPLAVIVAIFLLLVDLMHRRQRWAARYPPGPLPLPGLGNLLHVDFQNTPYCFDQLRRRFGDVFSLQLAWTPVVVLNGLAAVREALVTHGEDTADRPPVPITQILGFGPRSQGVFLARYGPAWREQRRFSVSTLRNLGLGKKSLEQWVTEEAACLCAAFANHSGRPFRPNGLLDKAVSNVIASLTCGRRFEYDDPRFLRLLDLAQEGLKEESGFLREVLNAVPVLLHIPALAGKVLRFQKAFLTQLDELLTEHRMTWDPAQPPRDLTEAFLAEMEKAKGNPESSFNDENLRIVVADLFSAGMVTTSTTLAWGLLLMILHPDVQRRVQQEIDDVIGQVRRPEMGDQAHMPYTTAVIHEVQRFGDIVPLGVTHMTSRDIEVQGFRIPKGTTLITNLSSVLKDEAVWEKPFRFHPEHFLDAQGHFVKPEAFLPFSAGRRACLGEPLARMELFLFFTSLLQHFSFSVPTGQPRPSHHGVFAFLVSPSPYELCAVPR

For `CCCCCc1cc(O)c2c(c1)OC(C)(CCC=C(C)C)C=C2` (stereo not drawn) [CBC, Cannabichromene], the “effect on IL-6 levels” value in data set [1] was “Concentration dependent reduction”. Besides, the “ΔAmax (spin state change due to heme perturbation)” value at CYP2D6 is 0.09 ± 0.01 and ~0.09. For the same molecule, the Kd on CYP2D6 (read-out: Kd(app)) is 11.4 µM and ~11 µM.

Turning to `CCCCCc1cc(O)c2c(c1)OC(C)(CC/C=C(\C)CO)C=C2` (stereo not drawn) [8′-hydroxy-CBC], the “detection as product of CBC metabolism in mouse plasma” value in data set [2] (mice, CBC 20 mg/kg IV or IP, plasma at 0.5 and 2 h) was “detected”. Further, the “detection in blood plasma after 2 h of CBC administration” value in data set [2] (mice, both IP and IV, 2 h) is recorded as “not detected”. The “plasma concentration relative to the 6′,7′-epoxy compound” value in data set [2] (mouse plasma 0.5 h after CBC 20 mg/kg, depending on mode of administration (IP or IV)) is recorded as 4–8 times.
